Results from PubChem BioAssay (NCI).
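Where inhibition never reached the appropriate level, the endpoint shown equals the highest concentration tested. Otherwise, values were interpolated linearly from a five-concentration, 48-hour dose response in 96-well plates. GI50 = concentration required for 50% inhibition of growth. TGI denotes the concentration required for complete inhibition of growth.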 Where a SMILES comes first, the peptide text is derived from it. The star is where a group is joined. Cbz = O=C(OCc1ccccc1)*; Boc = CC(C)(C)OC(=O)*; tBu = CC(C)(C)*

Key:
Experiment in all cases: growth of human tumour cells (NCI), 48 h
RPMI-8226 leukemia = system: RPMI-8226 leukemia
HS 578T breast = system: HS 578T breast
SK-MEL-5 melanoma = system: SK-MEL-5 melanoma
OVCAR-5 ovarian = system: OVCAR-5 ovarian
A549 NSCLC = system: A549 NSCLC
K-562 leukemia = system: K-562 leukemia
OVCAR-3 ovarian = system: OVCAR-3 ovarian
SK-MEL-28 melanoma = system: SK-MEL-28 melanoma
NCI/ADR-RES ovarian = system: NCI/ADR-RES ovarian
U251 CNS = system: U251 CNS
OVCAR-4 ovarian = system: OVCAR-4 ovarian
A498 renal = system: A498 renal
HCT-15 colon = system: HCT-15 colon
M19-MEL melanoma = system: M19-MEL melanoma

Row | Structure (SMILES) | TGI (RPMI-8226 leukemia) [µM] | TGI (HS 578T breast) [µM] | TGI (SK-MEL-5 melanoma) [µM] | TGI (OVCAR-5 ovarian) [µM] | TGI (A549 NSCLC) [µM] | TGI (K-562 leukemia) [µM] | TGI (OVCAR-3 ovarian) [µM] | TGI (SK-MEL-28 melanoma) [µM] | TGI (NCI/ADR-RES ovarian) [µM] | TGI (U251 CNS) [µM] | TGI (OVCAR-4 ovarian) [µM] | TGI (A498 renal) [µM] | TGI (HCT-15 colon) [µM] | GI50 (OVCAR-3 ovarian) [µM] | TGI (M19-MEL melanoma) [µM]
1 | CC(=O)OC1(C)C=CC(=O)C=C1 | > 100 | > 100 | > 100 | > 100 | > 100 | > 100 | > 100 | 69.6 | 26.3 | 28.7 | > 100 | 84 | > 100 |  | 
2 | CN1C2CCC1CC(CCNC(c1ccccc1)c1ccccc1)C2 (stereo not given) | 56.1 | > 100 | 25.5 | > 100 | > 100 | 27.4 | > 100 | 34.2 | > 100 | > 100 | > 100 | 60.5 | > 100 |  | 
3 | COc1ccc(O)c(/C(C)=N/NC(=S)N(C)C)c1 | > 100 | > 100 | > 100 | > 100 | > 100 | > 100 | > 100 | > 100 | > 100 | > 100 | 54.3 | > 100 | > 100 |  | 
4 | CCNc1cc2c(cc1O)CC[C@@H]1[C@@H]2CC[C@]2(C)[C@@H](O)CC[C@@H]12 | 63.5 | 35 | 11.8 | 34.7 | 54.6 | > 41.4 | 3.63 | 24.5 | 20.9 | 18.5 | 21.5 | 6.16 | 15 | 0.815 | 
5 | CN(C)CCCN1c2ccccc2Sc2cnccc21 | > 100 | > 100 | > 100 | > 100 | > 100 | > 100 | > 100 | > 100 | > 100 | > 100 | > 100 | > 100 | > 100 |  | 
6 | CC(C)(C)C1=CC(=C(c2ccc(-c3c4nc(c(-c5ccc(C(=C6C=C(C(C)(C)C)C(=O)C(C(C)(C)C)=C6)c6cc(C(C)(C)C)c(O)c(C(C)(C)C)c6)cc5)c5ccc([nH]5)c(-c5ccc(C(=C6C=C(C(C)(C)C)C(=O)C(C(C)(C)C)=C6)c6cc(C(C)(C)C)c(O)c(C(C)(C)C)c6)cc5)c5nc(c(-c6ccc(C(=C7C=C(C(C)(C)C)C(=O)C(C(C)(C)C)=C7)c7cc(C(C)(C)C)c(O)c(C(C)(C)C)c7)cc6)c6ccc3[nH]6)C=C5)C=C4)cc2)c2cc(C(C)(C)C)c(O)c(C(C)(C)C)c2)C=C(C(C)(C)C)C1=O | > 100 | > 100 | > 100 | > 100 | > 100 | > 100 | > 100 | > 100 | > 100 | > 100 | > 100 | > 100 | > 100 |  | 
7 | Cc1cccc2c(N)c3cccc(C(=O)NCC[N+](C)(C)Cc4c([N+](=O)[O-])ncn4C)c3nc12 | > 100 | > 96.1 | > 88.8 | > 100 | > 47.9 | > 100 | > 100 | > 100 | > 100 | > 100 | > 72.5 | > 100 | > 100 |  | 
8 | COc1ccc(C2=Nn3c(nnc(Cc4ccc(Cl)cc4)c3=O)SC2)cc1 | > 100 | > 100 | > 100 | > 100 | > 100 | > 100 | 92.2 | > 100 | 53.7 | > 100 | > 100 | > 100 | > 100 |  | 
9 | CC(OC(C)(C)C)C(NC(=O)C(CCCCNC(=O)OC(C)(C)C)NC(=O)C(Cc1c[nH]c2ccccc12)NC(=O)C(Cc1ccccc1)NC(=O)OCc1ccccc1)C(=O)NC(Cc1ccccc1)C(=O)O (stereo not given) (Cbz-FWK(Boc)T(tBu)F-OH; configuration not given here) | > 100 | 44.4 | 33.9 | > 100 | > 100 | > 100 | 85 | > 100 | > 100 | > 100 | > 100 | > 100 | > 100 |  | 
10 | O=c1[nH]nc(Cc2ccccc2)[nH]1 | > 100 | > 100 | > 100 | > 100 | > 100 | > 100 | > 100 | > 100 | > 100 | > 100 | > 100 | > 100 | > 100 |  | 
11 | COC(=O)C(COC(C)=O)NC(=O)/C=C/c1ccc(O)c(OC(C)=O)c1 (stereo not given) | > 100 | > 100 | > 100 | > 100 | > 100 | > 100 | > 100 | > 100 | > 100 | > 100 | > 100 | > 100 | > 100 |  | 
12 | CC(=O)N[C@@H](Cc1ccc(O)cn1)C(=O)NCc1cccc(Cl)c1 | > 100 | > 100 | > 100 | > 100 | > 100 | > 100 | > 100 | > 100 | > 100 | > 100 | > 100 | > 100 | > 100 |  | 
13 | CNC(=O)N1CN(c2ccccc2)C2(CCN(CCCC3(c4ccc(F)cc4)OCCO3)CC2)C1=O | > 100 | > 100 | > 100 | > 100 | > 100 | > 100 | > 100 | > 100 | > 100 | > 100 | > 100 | > 100 | > 100 |  | 
14 | CSC1=N/C(=C\c2ccccc2)C(=O)N1CN1CCCCC1 | > 100 | > 100 | > 100 | > 100 | > 100 | > 100 | > 100 | > 100 | > 100 | > 100 | 56.4 | > 100 |  |  | 
15 | CCOP(=O)(CN1CCNCCNCC1)OCC | > 100 | > 100 | > 100 | > 100 | > 100 | > 100 | > 100 | > 100 | > 100 | > 100 | > 100 | > 100 | > 100 |  | 
16 | COc1cccc(/C=C2\C(=O)N(C(=O)c3ccc(NC(C)=O)cc3)N=C2C)c1 |  |  | > 100 | > 100 | > 100 | > 100 | > 100 | > 100 |  | > 100 | > 100 |  | > 100 |  | > 100
